From patent US10004701B2, “Methods and compositions for treating infection” (UNIVERSITY OF ROCHESTER, priority 2012, dated 2018)
Read-outs that look alike come from different tables or passages of the source.

Assays:
Assay in all cases: AK assay 384-well format, Prestwick library screening
K. pneumoniae = type: cell-based, Klebsiella pneumoniae; conditions: 50 μM final drug concentration; for fold induction at 50 µM: Klebsiella pneumoniae, 3 h
E. cloacae = type: cell-based, Enterobacter cloacae; conditions: 50 μM final drug concentration; for fold induction at 50 µM: Enterobacter cloacae, 3 h
[1] = tested on: S. aureus strain USA300-0114; type: cell-based, Staphylococcus aureus; conditions: 50 μM final drug concentration; for fold induction at 50 µM: Staphylococcus aureus, USA300, 3 h
[2] = tested on: A. baumannii strain 98-37-09; type: cell-based, Acinetobacter baumannii; conditions: 50 μM final drug concentration; for fold induction at 50 µM: Acinetobacter baumannii, 983709, 3 h
P. aeruginosa = type: cell-based, Pseudomonas aeruginosa; conditions: 50 μM final drug concentration; for fold induction at 50 µM: Pseudomonas aeruginosa, 3 h
E. coli = type: cell-based, Escherichia coli; conditions: 50 μM final drug concentration; for fold induction at 50 µM: Escherichia coli, 3 h
E. faecium = type: cell-based, Enterococcus faecium; conditions: 50 μM final drug concentration; for fold induction at 50 µM: Enterococcus faecium, 3 h
[3] = planktonic, cutoff for positive 3-fold increase
[4] = planktonic K. pneumoniae, cutoff for positive-scoring molecules 3-fold increase
[5] = planktonic E. cloacae, cutoff for positive-scoring molecules 3-fold increase
[6] = planktonic S. aureus, cutoff for positive-scoring molecules 3-fold increase
[7] = planktonic A. baumannii, cutoff for positive-scoring molecules 3-fold increase
[8] = planktonic P. aeruginosa, cutoff for positive-scoring molecules 3-fold increase
[9] = planktonic E. coli, cutoff for positive-scoring molecules 3-fold increase
[10] = planktonic E. faecium, cutoff for positive-scoring molecules 3-fold increase
[11] = planktonic, cutoff for positive-scoring molecules 3-fold increase

## COc1ccc2c(c1)[C@]13CCCC[C@@H]1[C@H](C2)N(C)CC3
K. pneumoniae; planktonic K. pneumoniae, […], read-out: AK-based Prestwick Library Screening Results, K. pneumoniae (increase in extracellular AK activity)
  fold induction at 50 µM: 0.7
E. cloacae; planktonic E. cloacae, […], read-out: AK-based Prestwick Library Screening Results, E. cloacae (increase in extracellular AK activity)
  fold induction at 50 µM: 1.1
[1]; planktonic S. aureus, […], read-out: AK-based Prestwick Library Screening Results, S. aureus (increase in extracellular AK activity)
  fold induction at 50 µM: 0.7
[2]; planktonic A. baumannii, […], read-out: AK-based Prestwick Library Screening Results, A. baumannii (increase in extracellular AK activity)
  fold induction at 50 µM: 0.8
P. aeruginosa; planktonic P. aeruginosa, […], read-out: AK-based Prestwick Library Screening Results, P. aeruginosa (increase in extracellular AK activity)
  fold induction at 50 µM: 0.8
E. coli; planktonic E. coli, […], read-out: AK-based Prestwick Library Screening Results, E. coli (increase in extracellular AK activity)
  fold induction at 50 µM: 0.8
E. faecium; planktonic E. faecium, […], read-out: AK-based Prestwick Library Screening Results, E. faecium (increase in extracellular AK activity)
  fold induction at 50 µM: 0.9

## COc1cc2c(cc1OC)C(C)NCC2.Cl (stereo not drawn)
K. pneumoniae; [3]
  AK-based Prestwick Library Screening Results, K. pneumoniae (fold increase in extracellular AK activity): 1.0
E. cloacae; [3]
  AK-based Prestwick Library Screening Results, E. cloacae (fold increase in extracellular AK activity): 1.5
[1]; [3]
  AK-based Prestwick Library Screening Results, S. aureus (fold increase in extracellular AK activity): 1.0
[2]; [3]
  AK-based Prestwick Library Screening Results, A. baumannii (fold increase in extracellular AK activity): 1.0
P. aeruginosa; [3]
  AK-based Prestwick Library Screening Results, P. aeruginosa (fold increase in extracellular AK activity): 1.2
E. coli; planktonic, […]
  AK-based Prestwick Library Screening Results, E. coli (fold increase in extracellular AK activity): 1.3
E. faecium; [3]
  AK-based Prestwick Library Screening Results, E. faecium (fold increase in extracellular AK activity): 0.9

## Cc1ccc(Cl)c(Nc2ccccc2C(=O)O)c1Cl
K. pneumoniae; planktonic K. pneumoniae, 384-well, cutoff for positive-scoring molecules 3-fold increase, read-out: AK-based Prestwick Library Screening Results: K. pneumoniae (increase in extracellular AK activity)
  fold induction at 50 µM: 1
E. cloacae; planktonic E. cloacae, 384-well, cutoff for positive-scoring molecules 3-fold increase, read-out: AK-based Prestwick Library Screening Results: E. cloacae (increase in extracellular AK activity)
  fold induction at 50 µM: 1.4
[1]; planktonic S. aureus, 384-well, cutoff for positive-scoring molecules 3-fold increase, read-out: AK-based Prestwick Library Screening Results: S. aureus (increase in extracellular AK activity)
  fold induction at 50 µM: 0.6
[2]; planktonic A. baumannii, 384-well, cutoff for positive-scoring molecules 3-fold increase, read-out: AK-based Prestwick Library Screening Results: A. baumannii (increase in extracellular AK activity)
  fold induction at 50 µM: 1.2
P. aeruginosa; planktonic P. aeruginosa, 384-well, cutoff for positive-scoring molecules 3-fold increase, read-out: AK-based Prestwick Library Screening Results: P. aeruginosa (increase in extracellular AK activity)
  fold induction at 50 µM: 1.2
E. coli; planktonic E. coli, 384-well, cutoff for positive-scoring molecules 3-fold increase, read-out: AK-based Prestwick Library Screening Results: E. coli (increase in extracellular AK activity)
  fold induction at 50 µM: 1.1
E. faecium; planktonic E. faecium, 384-well, cutoff for positive-scoring molecules 3-fold increase, read-out: AK-based Prestwick Library Screening Results: E. faecium (increase in extracellular AK activity)
  fold induction at 50 µM: 1.2

## CC(C)NCC(O)c1cc(O)cc(O)c1.CC(C)NCC(O)c1cc(O)cc(O)c1.O=S(=O)(O)O (stereo not drawn)
K. pneumoniae; [4]
  AK-based Prestwick Library Screening Results, K. pneumoniae (increase in extracellular AK activity): 0.7
E. cloacae; [5]
  AK-based Prestwick Library Screening Results, E. cloacae (increase in extracellular AK activity): 1.0
[1]; [6]
  AK-based Prestwick Library Screening Results, S. aureus (increase in extracellular AK activity): 0.6
[2]; [7]
  AK-based Prestwick Library Screening Results, A. baumannii (increase in extracellular AK activity): 0.9
P. aeruginosa; [8]
  AK-based Prestwick Library Screening Results, P. aeruginosa (increase in extracellular AK activity): 0.9
E. coli; [9]
  AK-based Prestwick Library Screening Results, E. coli (increase in extracellular AK activity): 1.0
E. faecium; [10]
  AK-based Prestwick Library Screening Results, E. faecium (increase in extracellular AK activity): 0.9

## O=C(O)Cc1cc(I)c(Oc2ccc(O)c(I)c2)c(I)c1
K. pneumoniae; planktonic K. pneumoniae, 384-well, cutoff for positive-scoring molecules 3-fold increase
  AK-based Prestwick Library Screening Results: K. pneumoniae (increase in extracellular AK activity): 1.0
E. cloacae; planktonic E. cloacae, 384-well, cutoff for positive-scoring molecules 3-fold increase
  AK-based Prestwick Library Screening Results: E. cloacae (increase in extracellular AK activity): 1.5
[1]; planktonic S. aureus, 384-well, cutoff for positive-scoring molecules 3-fold increase
  AK-based Prestwick Library Screening Results: S. aureus (increase in extracellular AK activity): 0.4
[2]; planktonic A. baumannii, 384-well, cutoff for positive-scoring molecules 3-fold increase
  AK-based Prestwick Library Screening Results: A. baumannii (increase in extracellular AK activity): 1.1
P. aeruginosa; planktonic P. aeruginosa, 384-well, cutoff for positive-scoring molecules 3-fold increase
  AK-based Prestwick Library Screening Results: P. aeruginosa (increase in extracellular AK activity): 1.2
E. coli; planktonic E. coli, 384-well, cutoff for positive-scoring molecules 3-fold increase
  AK-based Prestwick Library Screening Results: E. coli (increase in extracellular AK activity): 1.1
E. faecium; planktonic E. faecium, 384-well, cutoff for positive-scoring molecules 3-fold increase
  AK-based Prestwick Library Screening Results: E. faecium (increase in extracellular AK activity): 1.3

## CN(N=O)C(=O)N[C@H]1C(O)O[C@H](CO)[C@@H](O)[C@@H]1O (mixture of isomers) [Streptozotocin]
K. pneumoniae; [11]
  AK-based Prestwick Library Screening Results, K. pneumoniae (fold increase in extracellular AK activity): 1.4
E. cloacae; [11]
  AK-based Prestwick Library Screening Results, E. cloacae (fold increase in extracellular AK activity): 0.7
[1]; [11]
  AK-based Prestwick Library Screening Results, S. aureus (fold increase in extracellular AK activity): 1.2
[2]; [11]
  AK-based Prestwick Library Screening Results, A. baumannii (fold increase in extracellular AK activity): 0.7
P. aeruginosa; [11]
  AK-based Prestwick Library Screening Results, P. aeruginosa (fold increase in extracellular AK activity): 0.7
E. coli; [11]
  AK-based Prestwick Library Screening Results, E. coli (fold increase in extracellular AK activity): 0.7
E. faecium; [11]
  AK-based Prestwick Library Screening Results, E. faecium (fold increase in extracellular AK activity): 2.6

## Cl.NCC(O)c1ccc(O)cc1 (racemic) [(+,−)-Octopamine hydrochloride]
K. pneumoniae; […]
  AK-based Prestwick Library Screening Results, K. pneumoniae (fold increase in extracellular AK activity): 1.1
E. cloacae; […]
  AK-based Prestwick Library Screening Results, E. cloacae (fold increase in extracellular AK activity): 1.4
[1]; […]
  AK-based Prestwick Library Screening Results, S. aureus (fold increase in extracellular AK activity): 1.3
[2]; […]
  AK-based Prestwick Library Screening Results, A. baumannii (fold increase in extracellular AK activity): 1.3
P. aeruginosa; […]
  AK-based Prestwick Library Screening Results, P. aeruginosa (fold increase in extracellular AK activity): 1.0
E. coli; […]
  AK-based Prestwick Library Screening Results, E. coli (fold increase in extracellular AK activity): 1.3
E. faecium; […]
  AK-based Prestwick Library Screening Results, E. faecium (fold increase in extracellular AK activity): 1.0

## CNCC(O)c1ccc(O)cc1 (racemic) [(+,−)-Synephrine]
K. pneumoniae; planktonic K. pneumoniae, positive cutoff 3-fold increase
  AK-based Prestwick library screening result, K. pneumoniae (fold increase in extracellular AK activity): 1.0
E. cloacae; planktonic E. cloacae, positive cutoff 3-fold increase
  AK-based Prestwick library screening result, E. cloacae (fold increase in extracellular AK activity): 1.3
[1]; planktonic S. aureus, positive cutoff 3-fold increase
  AK-based Prestwick library screening result, S. aureus (fold increase in extracellular AK activity): 1.0
[2]; planktonic A. baumannii, positive cutoff 3-fold increase
  AK-based Prestwick library screening result, A. baumannii (fold increase in extracellular AK activity): 1.1
P. aeruginosa; planktonic P. aeruginosa, positive cutoff 3-fold increase
  AK-based Prestwick library screening result, P. aeruginosa (fold increase in extracellular AK activity): 1.1
E. coli; planktonic E. coli, positive cutoff 3-fold increase
  AK-based Prestwick library screening result, E. coli (fold increase in extracellular AK activity): 1.3
E. faecium; planktonic E. faecium, positive cutoff 3-fold increase
  AK-based Prestwick library screening result, E. faecium (fold increase in extracellular AK activity): 1.1

## CN(Cc1cnc2nc(N)nc(N)c2n1)c1ccc(C(=O)N[C@@H](CCC(=O)O)C(=O)O)cc1 (racemic) [Amethopterin (R,S)]
K. pneumoniae; [3]
  AK-based Prestwick Library Screening Results, K. pneumoniae (fold increase in extracellular AK activity): 0.8
E. cloacae; [3]
  AK-based Prestwick Library Screening Results, E. cloacae (fold increase in extracellular AK activity): 1.3
[1]; [3]
  AK-based Prestwick Library Screening Results, S. aureus (fold increase in extracellular AK activity): 1.0
[2]; [3]
  AK-based Prestwick Library Screening Results, A. baumannii (fold increase in extracellular AK activity): 0.9
P. aeruginosa; [3]
  AK-based Prestwick Library Screening Results, P. aeruginosa (fold increase in extracellular AK activity): 1.1
E. coli; [3]
  AK-based Prestwick Library Screening Results, E. coli (fold increase in extracellular AK activity): 1.1
E. faecium; [3]
  AK-based Prestwick Library Screening Results, E. faecium (fold increase in extracellular AK activity): 0.9

## CC(=O)NC(CC(=O)O)C(=O)O (racemic) [Aspartic acid, N-acetyl (R,S)]
K. pneumoniae; [4]
  AK-based Prestwick Library Screening Results, K. pneumoniae (increase in extracellular AK activity): 0.5
E. cloacae; [5]
  AK-based Prestwick Library Screening Results, E. cloacae (increase in extracellular AK activity): 0.7
[1]; [6]
  AK-based Prestwick Library Screening Results, S. aureus (increase in extracellular AK activity): 0.5
[2]; [7]
  AK-based Prestwick Library Screening Results, A. baumannii (increase in extracellular AK activity): 0.6
P. aeruginosa; [8]
  AK-based Prestwick Library Screening Results, P. aeruginosa (increase in extracellular AK activity): 0.6
E. coli; [9]
  AK-based Prestwick Library Screening Results, E. coli (increase in extracellular AK activity): 0.6
E. faecium; [10]
  AK-based Prestwick Library Screening Results, E. faecium (increase in extracellular AK activity): 0.9

## NCC(CC(=O)O)c1ccc(Cl)cc1 (racemic) [Baclofen (R,S)]
K. pneumoniae; 384-well format, […]
  AK-based Prestwick Library Screening Results, K. pneumoniae (increase in extracellular AK activity): 0.6
E. cloacae; 384-well format, […]
  AK-based Prestwick Library Screening Results, E. cloacae (increase in extracellular AK activity): 0.3
[1]; 384-well format, […]
  AK-based Prestwick Library Screening Results, S. aureus (increase in extracellular AK activity): 0.4
[2]; 384-well format, […]
  AK-based Prestwick Library Screening Results, A. baumannii (increase in extracellular AK activity): 0.4
P. aeruginosa; 384-well format, […]
  AK-based Prestwick Library Screening Results, P. aeruginosa (increase in extracellular AK activity): 0.3
E. coli; 384-well format, […]
  AK-based Prestwick Library Screening Results, E. coli (increase in extracellular AK activity): 0.5
E. faecium; 384-well format, […]
  AK-based Prestwick Library Screening Results, E. faecium (increase in extracellular AK activity): 0.8

## O.Oc1cc(O)c2c(c1)OC(c1ccc(O)c(O)c1)C(O)C2 (racemic) [Catechin-(+,−) hydrate]
K. pneumoniae; [11]
  AK-based Prestwick Library Screening Results, K. pneumoniae (fold increase in extracellular AK activity): 0.6
E. cloacae; [11]
  AK-based Prestwick Library Screening Results, E. cloacae (fold increase in extracellular AK activity): 1.0
[1]; [11]
  AK-based Prestwick Library Screening Results, S. aureus (fold increase in extracellular AK activity): 0.7
[2]; [11]
  AK-based Prestwick Library Screening Results, A. baumannii (fold increase in extracellular AK activity): 0.7
P. aeruginosa; [11]
  AK-based Prestwick Library Screening Results, P. aeruginosa (fold increase in extracellular AK activity): 0.6
E. coli; [11]
  AK-based Prestwick Library Screening Results, E. coli (fold increase in extracellular AK activity): 0.7
E. faecium; [11]
  AK-based Prestwick Library Screening Results, E. faecium (fold increase in extracellular AK activity): 0.9
